Legend:
[1] = target: purified carbonic anhydrase (Homo sapiens, UniProt P00918); test: Enzymatic carbonic anhydrase inhibition assay (modification of Maren's micromethod); format: biochemical; settings: relative to acetazolamide control = 100%
Method: CAI efficacy and potency are assessed using an enzymatic method. […] Essentially, a reaction volume of 0.8 mL containing a carbonate/bicarbonate buffer, phenol red, purified carbonic anhydrase, and inhibitor is maintained at 0° and saturated with CO2 by constant bubbling. The time required for acidification to a color change endpoint is monitored as the dependent variable.

[2] = topical CAI, lowering of IOP; cited from earlier work
[3] = oral administration; cited from earlier work

| Structure (SMILES) | Relative CA inhibition Potency [1] | further results |
| --- | --- | --- |
| NS(=O)(=O)c1nnc(NC(CC(=O)O)C(=O)O)s1 (stereo not drawn) [Example 2] | 48% | – |
| NS(=O)(=O)c1nnc(NC(CCC(=O)O)C(=O)O)s1 (stereo not drawn) [Example 3] | 22% | – |
| NS(=O)(=O)c1nnc(NC(CCCC(=O)O)C(=O)O)s1 (stereo not drawn) [Example 4] | 20% | – |
| Nc1ccc2nc(S(N)(=O)=O)sc2c1 [aminozolamide] | – | efficacy in clinical trial [2]: partially effective |
| CC(=O)Nc1nnc(S(N)(=O)=O)s1 [acetazolamide, 2-acetylamino-1,3,4-thiadiazole-5-sulfonamide] | – | effect on IOP [3]: decrease IOP |
| NS(=O)(=O)c1nnc(NC(CCC(=O)O)CC(=O)O)s1 (stereo not drawn) [Example 5] | 60% | – |
